The values below come from US20200247808A1, “Heterocyclic Tec-Family Kinase Inhibitors” (GB005, Inc., priority 2015, published 2020).

As usually defined, the IC50 is the concentration that inhibits the measured activity by half. Read a low IC50 as greater potency. Broadly, the EC50 is the concentration giving half of the maximal effect. Usually AUC stands for the area under the concentration-time curve, a measure of exposure. As usually defined, the bioavailability is the share of a dose that reaches the circulation, judged against a reference dose that is usually intravenous. As usually defined, the Cmax is the maximum level reached in the sampled fluid or tissue.

The nature of data set [1]: Formation of glutathione adducts (GSH reactivity, HPLC-UV). The data set is classed as in vitro ADME. Conditions: 10 mM GSH, 20 micromolar test article, pH 7.4, 37° C. As for the experimental part: Generation of non-specific thiol adducts can be measured by assaying reactivity of compounds with GSH. Formation of GSH adducts was measured by incubating GSH (10 mM) in 100 mM Phosphate Buffer pH 7.4 with test article at 20 micromolar final concentration. Briefly, 600 microliters of phosphate buffer pH 7.4 was added in a glass vial with 200 microliters of 100 micromolar test article in DMSO. Samples were warmed at 37° C. for 10 minutes and the reaction was initiated by the addition of 200 microliters of 50 mM reduced GSH in phosphate buffer pH 7.4 and incubated at 37° C. At various time points (0.5 min, 5 min, 15 min, 30 min, 60 min, 120 min and 180 min) 50 microliter aliquots were placed into an injection vial equipped with an insert and mixed with 50 microliters of 1% formic acid in 99% Methanol. Vials were loaded onto the HPLC injection tray and each sample was injected onto a C18 column (ACE 3 C18, 4.6×50 mm column) and both the parent and product were monitored by UV absorbance at 254 nm on an Agilent Technologies 1100 series HPLC. Peaks were integrated and the percentage of product present calculated as the percent of the total peak area on the parent and product at 60 minutes.

The next data set has as its target T1, human BTK (Homo sapiens, UniProt Q06187).
T1 construct: purchased Eurofins Pharma Discovery Services UK Limited (contract assay, KinaseProfiler)
As to the kind of experiment: BTK kinase inhibition, KinaseProfiler radiometric protein kinase assay (Eurofins). The format is biochemical. The procedure: In vitro potency of selected compound was defined against human BTK, EGFR, and ErbB2 kinases using Kinase Profiler radiometric protein kinase assays performed at Eurofins Pharma Discovery Services UK Limited.
Each kinase is diluted in buffer and all compounds were prepared to 50x final assay concentration in 100% DMSO. This working stock of the compound was added to the assay well as the first component in the reaction, followed by the remaining components as detailed in the assay protocol listed above. The reaction was initiated by the addition of the MgATP mix. […] (specific activity approx. 500 cpm/pmol, concentration as required) and variable test article concentrations. […] The reaction was stopped by the addition of 3% phosphoric acid solution. 10 μL of the reaction is then spotted onto a P30 filtermat and washed three times for 5 minutes in 75 mM phosphoric acid and once in methanol prior to drying and scintillation counting. In addition positive control wells contain all components of the reaction, except the compound of interest; however, DMSO (at a final concentration of 2%) were included in these wells to control for solvent effects as well as blank wells contain all components of the reaction, with a reference inhibitor replacing the compound of interest. This abolishes kinase activity and establishes the base-line (0% kinase activity remaining). The potency of each compound was reported by estimating the EC50.

A further data set deals with splenocytes. In words: Splenic cell proliferation assay (anti-IgM stimulated, Cell Titer-Glo). The format is cell-based, mouse (CD1). Conditions: Splenocyte; mouse splenocytes, 2.5 μg/ml anti-IgM F(ab')2, 72 h; read-out: Spleen cell EC50. The procedure:
Proliferation of splenocytes in response to anti-IgM can be blocked by inhibition of BTK. Splenocytes were obtained from 6 week old male CD1 mice (Charles River Laboratories Inc.). Mouse spleens were manually disrupted in PBS and filtered using a 70um cell strainer followed by ammonium chloride red blood cell lysis. Cells were washed, resuspended in Splenocyte Medium (HyClone RPMI supplemented with 10% heat-inactivated FBS, 0.5X non-essential amino acids, 10 mM HEPES, 50 μM beta mercaptoethanol) and incubated at 37° C., 5% CO2 for 2h to remove adherent cells. Suspension cells were seeded in 96 well plates at 50,000 cells per well and incubated at 37° C., 5% CO2 for 1h. Splenocytes were pre-treated in triplicate with 10,000 nM curves of Formula 1 compounds for 1h, followed by stimulation of cell proliferation with 2.5 μg/ml anti-IgM
F(ab′)2 (Jackson ImmunoResearch) for 72 h. Cell proliferation was measured by Cell Titer-Glo Luminescent Assay (Promega). EC50 values (50% proliferation in the presence of compound as compared to vehicle treated controls) were calculated from dose response compound curves using GraphPad Prism Software.
In general terms: ATP-based viability assays read luminescence as a measure of living cells.

The test system of data set [2] is TMD-8 human activated B cell diffuse large B cell lymphoma cells. In words: TMD-8 survival assay (Cell Titer-Glo). The format is cell-based. Conditions: TMD8, TMD-8 cells, 72 h. As for the experimental part: TMD-8 human activated B cell diffuse large B cell lymphoma cells were seeded in 96-well plates at a density of 20,000 cells/well in HyClone RPMI supplemented with 10% FBS (Fisher)/1% Penicillin/Streptomycin (HyClone) and incubated at 37° C., 5% CO2. Cells were treated in triplicate with 1,000 nM or 100 nM curves of compounds for 72h. Cell survival was measured by Cell Titer-Glo Luminescent Assay (Promega). EC50 values (50% proliferation in the presence of compound as compared to vehicle treated controls) were calculated from dose response compound curves using GraphPad Prism Software.

Data set [3] is described as follows: Mouse plasma pharmacokinetics. The format is in vivo, mouse (CD-1). Conditions: male, CD-1, mouse, mice. The procedure: Plasma pharmacokinetic studies were conducted in CD1 mice to compare the plasma exposure following oral and intravenous administration of the free-base form of each compound to mice and to calculate bioavailability. Male CD-1 mice (25-30 g on delivery; Charles River) were used for mouse PK studies. The mice were housed 3 per cage in a room under controlled conditions of temperature ([…]) and humidity (40-70%), with a 12 h dark/light cycle. The animals were acclimated for a minimum of 3 days prior to use and received standard rodent chow (Charles River) and municipal tap water ad libitum. Nine animals were used per study, they were dosed PO or IV and bled from the mandibular vein, 2 to 3 times per animal at the following time points; pre dose, 15 and 30 min, 1, 2, 3, 5, 7 and 24 h (0.1 mL whole blood /time point; composite PK). Blood was collected into microvette K3E tubes ([…]) at RT and then centrifuged at 5,000 RPM for 2 min at 4° C. in order to separate plasma. Isolated plasma (0.015 mL/time point) was pipetted into 96 well plates (Canadian Life Science) which were stored at minus 20° C. until analysis (2 duplicate plates per study).
Concentrations of compound in rodent plasma samples were determined by LC-MS-MS. Two standard curves containing 8 points each were prepared by spiking in methanol or plasma with a solution containing the test article at a defined concentration. The range of final compound concentration in the standard curve was 0 to 1 μg/mL. Three sets of quality control (QC) samples in plasma at low, medium and high concentration within the standard curve range were also prepared. For analysis, the compound was extracted using protein precipitation extraction procedure. Briefly, a three-fold volume of methanol containing an internal standard was added to the plasma and standard curve solution samples and then incubated at 4° C. for 5 minutes. The plates were centrifuged for 30 minutes at 4° C. at 4000 rpm and the resulting supernatant was transferred to a 96-well propylene plates and sealed with cover to avoid sample evaporation. Ten μL aliquots of extracted samples were injected using a 96-well plate autosampler held at 4° C. onto a ACE C18 50×4.6 mm, 3 um HPLC column held at 30° C. Plasma derived parent compound was eluted using the following conditions: pump flow rate was set at 1 mL/min for a five minutes chromatographic method using a 3 min gradient elution from 20% solvent A (0.1% formic acid in water) and 80% solvent B (0.1% Formic Acid in Methanol) to 10% solvent A and 90% solvent B. The method was followed by 1 min column wash at 95% solvent B and 1 min column re-equilibration back to 80% solvent B. Under these conditions the compound was eluted after 1.8 minutes. For LC-MS-MS compound detection, the curtain gas was set at 10, collision gas was set at 8, ion spray voltage was set at 4500, temperature was set at 500, ion source gas 1 was set at 40 and ion source gas 2 was set at 60. Using a positive ionization mode, the MRM transition monitored was set at […]. Under these conditions, standard curves were linear up to 2000 ng/mL, the lower limit of quantification was generally at 10 ng/mL.
The area under the curve (AUCtot and AUClast), the maximum plasma concentration (Cmax) and time (Tmax), and terminal half life (T1/2), clearance and volume of distribution were calculated by regression analysis using Kinetica version 5.0 (Thermo Fisher Scientific) using a Non-Compartmental Extravascular/IV Bolus analysis model.

SMILES strings stand for the structures. Read-outs that look alike come from different tables or passages of the source.

T1 sequence (Q06187 whole entry): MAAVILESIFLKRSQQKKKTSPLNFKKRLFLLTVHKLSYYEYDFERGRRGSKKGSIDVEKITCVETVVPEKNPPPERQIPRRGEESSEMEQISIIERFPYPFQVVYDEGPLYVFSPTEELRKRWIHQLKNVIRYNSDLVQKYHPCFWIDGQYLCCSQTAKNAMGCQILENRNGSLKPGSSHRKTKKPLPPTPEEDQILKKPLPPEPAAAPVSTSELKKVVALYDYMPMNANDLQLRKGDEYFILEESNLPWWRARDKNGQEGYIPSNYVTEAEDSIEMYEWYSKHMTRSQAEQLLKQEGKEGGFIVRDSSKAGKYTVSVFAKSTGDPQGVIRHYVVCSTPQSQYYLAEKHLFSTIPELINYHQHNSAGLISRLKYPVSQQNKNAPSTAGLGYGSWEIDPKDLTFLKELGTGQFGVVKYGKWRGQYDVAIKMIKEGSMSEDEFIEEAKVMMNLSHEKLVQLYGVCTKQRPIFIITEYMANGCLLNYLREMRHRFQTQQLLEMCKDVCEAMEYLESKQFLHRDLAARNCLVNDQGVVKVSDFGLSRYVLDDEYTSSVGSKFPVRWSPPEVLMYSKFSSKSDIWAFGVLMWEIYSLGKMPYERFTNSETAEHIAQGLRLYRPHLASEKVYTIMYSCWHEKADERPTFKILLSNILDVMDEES

As to `C=CC(=O)N[C@H]1C[C@@H](n2nc(-c3ccc(Oc4ccc(F)cc4F)cc3)c3c(N)ncnc32)C1` [Compound 3], in data set [1], the “GSH Reactivity GSH Conjugate at 60 minutes” value (“GSH Reactivity GSH Conjugate” for short) is 12.6 % of total Peaks. On human BTK, 10 nM corresponded to half-maximal inhibition (IC50). Also, the EC50 with splenocytes turned out to be 0.9 nM; in data set [2], 6.5 nM.

As for `CC#CC(=O)N(C)[C@H]1C[C@@H](n2nc(-c3ccc(Oc4ccccc4)cc3)c3c(N)ncnc32)C1` [Compound 4], in data set [1], the “GSH Reactivity GSH Conjugate” value is 8.4 % of total Peaks. On human BTK, this compound had an IC50 of 1 nM. Further, the EC50 was found to be 0.8 nM in the data set on splenocytes and 5.4 nM in data set [2].

With `C=CC(=O)N(C)[C@H]1C[C@@H](n2nc(-c3ccc(Oc4ccccc4)cc3)c3c(N)ncnc32)C1` [Compound 5], the “GSH Reactivity GSH Conjugate” value in data set [1] is 28.9 % of total Peaks. For the same compound, at human BTK, half-maximal inhibition (IC50) required 0.7 nM. Further, the EC50 with splenocytes was 0.5 nM; in data set [2], 1.9 nM.

With `C=CC(=O)N[C@H]1C[C@@H](n2nc(-c3ccc(Oc4ccccc4)cc3F)c3c(N)ncnc32)C1` [Compound 6], the “GSH Reactivity GSH Conjugate” value in data set [1] was 12.6 % of total Peaks. This compound also came in with an IC50 against human BTK of 3 nM. Besides, the EC50 in the data set on splenocytes came to 0.4 nM; in data set [2], 3 nM.

For the compound `CC#CC(=O)N[C@H]1C[C@@H](n2nc(-c3ccc(Oc4ccccc4)cc3F)c3c(N)ncnc32)C1` [Compound 7], the “GSH Reactivity GSH Conjugate” value in data set [1] is given as 5.9 % of total Peaks. At human BTK, this compound yielded an IC50 of 1 nM. Further, the EC50 in the data set on splenocytes was found to be 0.4 nM; in data set [2], 1.5 nM.

For the compound `C=CC(=O)N1CCC[C@@H](n2nc(-c3ccc(Oc4ccccc4)cc3)c3c(N)ncnc32)C1` [Reference, 1-((R)-3-(4-amino-3-(4-phenoxyphenyl)-1H-pyrazolo[3,4-d]pyrimidin-1-yl)piperidin-1-yl)prop-2-en-1-one, reference compound], in data set [1], the “GSH Reactivity GSH Conjugate” value is listed as 31.7 % of total Peaks. In addition, the EC50 with splenocytes is 0.4 nM; in data set [2], 2 nM. Also, the AUC was determined as 1070 ng·h/mL in data set [3] (intravenous 3 mg/kg, free base, read-out: Intravenous AUC) and 349 ng·h/mL in data set [3] (oral 10 mg/kg, free base, read-out: Oral AUC). This compound also gave a bioavailability in data set [3] (oral 10 mg/kg vs intravenous 3 mg/kg) of 9.8%. In data set [3] (oral 10 mg/kg, free base), the Cmax was determined as 219 ng/mL.
